The text below walks through data of patent EP3839043A1, “SCREENING METHODS FOR COMPOUNDS MODULATING POLYAMINE TRANSPORT” (Katholieke Universiteit Leuven, priority 2019, dated 2021).

The target of one data set is T1, Purified ATP13A2 (Homo sapiens, UniProt Q9NQ11).
T1 sequence (Q9NQ11 1-1175 isoform Q9NQ11-3): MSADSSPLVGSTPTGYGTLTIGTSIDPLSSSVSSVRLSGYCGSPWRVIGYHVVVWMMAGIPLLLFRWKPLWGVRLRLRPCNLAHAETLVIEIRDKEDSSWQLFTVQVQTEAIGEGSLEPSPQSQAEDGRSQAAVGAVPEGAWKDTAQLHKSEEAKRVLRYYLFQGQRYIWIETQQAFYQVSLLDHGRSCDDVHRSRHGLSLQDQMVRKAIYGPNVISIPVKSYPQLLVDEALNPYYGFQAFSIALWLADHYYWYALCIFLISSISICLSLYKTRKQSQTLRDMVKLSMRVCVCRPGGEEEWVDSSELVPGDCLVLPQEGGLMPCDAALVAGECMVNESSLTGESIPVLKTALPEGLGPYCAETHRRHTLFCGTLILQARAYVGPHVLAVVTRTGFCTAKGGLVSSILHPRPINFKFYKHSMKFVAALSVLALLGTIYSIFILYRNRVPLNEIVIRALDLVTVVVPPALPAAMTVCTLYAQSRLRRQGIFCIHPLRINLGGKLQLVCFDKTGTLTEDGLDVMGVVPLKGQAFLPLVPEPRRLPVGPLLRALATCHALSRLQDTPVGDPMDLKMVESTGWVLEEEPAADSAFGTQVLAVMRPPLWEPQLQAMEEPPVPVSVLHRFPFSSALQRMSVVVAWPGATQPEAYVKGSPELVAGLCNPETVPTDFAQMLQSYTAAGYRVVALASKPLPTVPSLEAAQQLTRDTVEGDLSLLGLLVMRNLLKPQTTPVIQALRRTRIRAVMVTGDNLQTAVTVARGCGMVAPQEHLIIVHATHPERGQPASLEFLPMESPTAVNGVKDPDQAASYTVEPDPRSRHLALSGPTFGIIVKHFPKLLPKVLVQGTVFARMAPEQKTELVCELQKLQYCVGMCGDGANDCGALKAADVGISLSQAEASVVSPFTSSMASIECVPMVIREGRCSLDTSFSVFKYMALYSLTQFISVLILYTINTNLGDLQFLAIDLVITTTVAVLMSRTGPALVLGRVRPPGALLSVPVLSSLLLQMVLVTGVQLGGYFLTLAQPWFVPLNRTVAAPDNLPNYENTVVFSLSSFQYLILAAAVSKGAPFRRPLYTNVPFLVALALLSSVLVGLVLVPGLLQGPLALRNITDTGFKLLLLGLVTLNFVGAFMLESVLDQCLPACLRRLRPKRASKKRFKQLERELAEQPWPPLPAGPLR
Nature of the data set: ATPase assay (ADP-Glo Max), purified ATP13A2 from yeast expression system. The data set is classed as biochemical. More on the design: we obtained >95% pure, full length and solubilized ATP13A2; biotin acceptor domain (BAD) tag behind a thrombin cleavage site (C, cleaved yes); made in house; host or cells: S. cerevisiae W303-1B/Gal4-ΔPep4, pYeDP60 vector. Particulars: for lipid concentration of maximal effect on ATPase activity / ATP13A2 activity, effect of regulatory lipids: purified ATP13A2; for lipid concentration of maximal effect on ATPase activity: 2 mM SPM; for ATP13A2 activity, effect of regulatory lipids: only in the presence of SPM. Here is the method:
(§1) ATPase assay - The ATPase activity of ATP13A2 was assessed using a commercially available luminescence assay (ADP-Glo Max assay, Promega) that monitors the production of ADP via luciferase activity. The reactions were performed for 30 min (37°C) in a final volume of 25 µl. The assay reaction mixture contained 50 mM MOPS-KOH (pH 7), 100 mM KCI, 11 mM MgCl2, 1 mM DTT, 195 µM DDM, various concentrations of the indicated compound, and either microsomes (5 µg) harvested from SH-SY5Y cells overexpressing ATP13A2 (WT or mutants) or purified ATP13A2 (0.5 µg). When purified ATP13A2 was used, we included 125 µM PA, 125 µM PI(3,5)P2 and 19.5 µM DDM in the reaction buffer. The assay was started by the addition of 5 mM ATP and was terminated by adding 25 µl of ADP-Glo Reagent. The 96-well plate was then incubated for 40 min at room temperature, followed by the addition of 50 µl of ADP-Glo Max Detection Reagent. After 40 min, luminescence was detected using a FlexStation 3.0 system (Molecular Devices). Dose-response curves and n/Km/Vmax values were calculated using GraphPad Prism Software (GraphPad Software Inc.).
Transformation and overexpression of ATP13A2 in yeast - The S. cerevisiae W303-1B/Gal4-ΔPep4 strain (leu2-3, his3-11,15, trp1-1::TRP1-GAL10-GAL4, ura3-1, ade2-1, canr, cir^+, ΔPep4 MAT; a kind gift from Rosa Lopez Marques) was transformed according to the lithium acetate/single-stranded carrier DNA/polyethylene glycol method [Gietz, R. D. & Woods, R. A. Methods Enzymol 350, 87-96 (2002)], with the pYeDP60 vector containing a yeast codon optimized version of human ATP13A2 variant 2 (WT or the catalytically dead E343A mutant) followed by a thrombin cleavage site and a C-terminal BAD tag [Azouaoui, H. et al. PLoS One 9, e112176, (2014); Jidenko, M. et al.Protein Expr Purif 48, 32-42, (2006)]. The transformation mixture was grown for 48 h at 30°C on minimal medium agar plates lacking uracil (0.54% yeast nitrogen base without amino acids, 0.12% yeast drop-out mix without Ura, 2% glucose, and 2% agar) to select yeast colonies that acquired the plasmid. These colonies were then cultured in 20 ml of MM-Ura medium (0.67% yeast nitrogen base without amino acids, 0.19% yeast drop-out mix without Ura, and 2% glucose) and grown for 24 h at 28°C and 200 rpm. The MM-Ura yeast pre-culture was used to inoculate 100 ml of MM-Ura medium to a final OD600 of 0.2, followed by a 12 h incubation period (28°C and 200 rpm). The second pre-culture was inoculated into 4.5 l of YPGE2X medium (2% yeast extract, 2% bactopeptone, 1% glucose, and 2.7% ethanol) to a final OD600 of 0.05 and grown for 36 h (28°C and 175 rpm). ATP13A2-BAD expression was induced with 2% galactose, followed by a second galactose induction 12 h later. After another 12 h, the pellet was collected (1,000 x g; 10 min; 4°C).
Yeast membrane preparation - Yeast cells were broken with glass beads using a BeadBeater (BioSpec products). The lysis buffer contained 50 mM Tris-HCI (pH 7.5), 1 mM EDTA, 0.6 M sorbitol, 1 mM phenylmethylsulfonyl fluoride and SigmaFast protease inhibitor. To remove cell debris and nuclei, the crude extract was centrifuged at 2,000 x g for 20 min (4°C). The supernatant (S1) was centrifuged at 20,000 x g for 20 min (4°C) to pellet the heavy membrane fraction (P2), and the resulting supernatant (S2) was further centrifuged at 200,000 x g for 1 h (4°C). The resulting pellet (i.e., the light membrane fraction, P3) was resuspended in 20 mM HEPES-Tris (pH 7.4), 0.3 M sucrose and 0.1 mM CaCl2. The total protein concentration was determined using a Bradford assay (B6916, Sigma-Aldrich).
ATP13A2-BAD purification - The method used to purify ATP13A2 was based on the purification of overexpressed Drs2p from yeast membranes. Yeast P3 membranes were diluted to 5 mg of total protein/ml in SSR buffer (50 mM MOPS-KOH (pH 7), 100 mM KCI, 20% glycerol, 5 mM MgCl2, 1 mM DTT, and SigmaFast protease inhibitor cocktail) and solubilized using DDM, with a detergent to protein ratio of 1:1.

For a further data set, the target named is T2, Microsomal ATP13A2 (Homo sapiens, UniProt Q9NQ11).
T2 construct: expressed in transfected cells; host or cells: SH-SY5Y human neuroblastoma cells, lentiviral transduction; microsomes solubilised with DDM
T2 sequence (Q9NQ11 1-1175 isoform Q9NQ11-3): T1 sequence (Q9NQ11 1-1175 isoform Q9NQ11-3)
Nature of the data set: ATPase assay (ADP-Glo Max), solubilized microsomes of SH-SY5Y cells overexpressing ATP13A2 WT. The data set is classed as biochemical. Particulars: for ATPase activity of ATP13A2, dose-response: indicated doses, microsomes 5 µg; for ATPase activity of ATP13A2 WT, screen for candidate substrates: 100 nM CaCl2, MnCl2, ZnCl2 or FeCl3, 100 µM SPD or SPM. Here is the method:
Membrane fractionation - Transduced SH-SY5Y cells were seeded in […] at a density of 6 x 10^6 cells per plate. 24 h later, the cells were harvested following trypsinization and brief centrifugation (300 x g, 5 min). Subcellular fractionation was performed by differential centrifugation. The microsomal protein concentration was measured using the bicinchoninic acid assay (Thermo Fischer Scientific, Pierce) according to the manufacturer's instructions.
as §1, with “The assay reaction mixture contained 50 mM MOPS-KOH (pH 7), 100 mM KCI, 11 mM MgCl2, 1 mM DTT, 195 µM DDM, various concentrations of the indicated compound, and either microsomes (5 µg) harvested from SH-SY5Y cells overexpressing ATP13A2 (WT or mutants) or purified ATP13A2 (0.5 µg). When purified ATP13A2 was used, we included 125 µM PA, 125 µM PI(3,5)P2 and 19.5 µM DDM in the reaction buffer.” left out
Background: ADP-Glo turns the ADP formed in a reaction into a luminescent signal.

The subject of the next data set is SH-SY5Y cells. Nature of the data set: MUH cytotoxicity assay. The data set is classed as cell-based, human. Particulars: increasing concentrations, 24 h. Here is the method:
MUH cytotoxicity assay - SH-SY5Y cells were seeded in 96-well plates (1 X 10^4 cells per well) and allowed to adhere overnight. The cells were subsequently treated with increasing doses of the indicated compounds for 24-48 h. Following exposure, the cells were washed with PBS and stained with 300 µg/ml MUH (prepared in DMSO, dissolved in PBS) for 30 min at 37°C.

Each structure is given as a SMILES string. Counter-ions that a name gives are not always drawn.

As to `CCCCCCCC/C=C\CCCCCCCC(=O)OC[C@H](COP(=O)(O)O)OC(=O)CCCCCCC/C=C\CCCCCCCC` [PA, 1,2-dioleoyl-sn-glycero-3-phosphate (sodium salt)], on Purified ATP13A2, the “lipid concentration of maximal effect on ATPase activity” value was 125 µM and the “ATP13A2 activity, effect of regulatory lipids” value is given as “strongly stimulated”.
In the case of `Cl.NCCc1ccc(O)c(O)c1` [dopamine, dopamine hydrochloride], the “ATPase activity of ATP13A2, dose-response” value on Microsomal ATP13A2 is “did not induce ATP13A2 activity”.
As for `[Cl-].[Cl-].[Zn+2]` [ZnCl2], the “ATPase activity of ATP13A2 WT, screen for candidate substrates” value (“ATPase activity of ATP13A2 WT, screen” below) at Microsomal ATP13A2 is listed as “did not increase ATP13A2 activity”.
As to `[Ca+2].[Cl-].[Cl-]` [CaCl2], the “ATPase activity of ATP13A2 WT, screen” value at Microsomal ATP13A2 was “had no effect”.
Turning to `CCCCCCCC/C=C\CCCCCCCC(=O)OC[C@H](COP(=O)(O)O[C@@H]1[C@H](O)[C@H](OP(=O)(O)O)[C@@H](O)[C@H](OP(=O)(O)O)[C@H]1O)OC(=O)CCCCCCC/C=C\CCCCCCCC` [PI(3,5)P2, 1,2-dioleoyl-sn-glycero-3-phospho-(1'-myo-inositol-3',5'-bisphosphate) (ammonium salt)], on Purified ATP13A2, the “lipid concentration of maximal effect on ATPase activity” value was 125 µM and the “ATP13A2 activity, effect of regulatory lipids” value is recorded as “strongly stimulated”.
On to `NCCCCCN` [cadaverine], for which, at Microsomal ATP13A2, the “ATPase activity of ATP13A2, dose-response” value is recorded as “did not induce ATP13A2 activity”.
As for `[Cl][Fe]([Cl])[Cl]` [FeCl3], the “ATPase activity of ATP13A2 WT, screen” value on Microsomal ATP13A2 is given as “did not increase ATP13A2 activity”.
For the compound `NCCc1c[nH]cn1` [histamine], at Microsomal ATP13A2, the “ATPase activity of ATP13A2, dose-response” value is “did not induce ATP13A2 activity”.
In the case of `Cl.Cl.NCCCCN` [putrescine, putrescine dihydrochloride], the “ATPase activity of ATP13A2, dose-response” value on Microsomal ATP13A2 is “did not induce ATP13A2 activity”. The “viability of control cells” value in the data set with SH-SY5Y cells is recorded as “not cytotoxic”.
As to `CC(=O)NCCCNCCCCNCCCN` [N1-acetylspermine, N^1-acetylspermine trihydrochloride], on Microsomal ATP13A2 (Microsomal ATP13A2), the “Vmax ± SEM” value was 98 ± 5 nmol ADP/mg/min. Further, at Microsomal ATP13A2, the “ATPase activity of ATP13A2, dose-response” value is “stimulate ATPase activity in a concentration-dependent manner”.
In the case of `[Cl][Mn][Cl]` [MnCl2], on Microsomal ATP13A2, the “ATPase activity of ATP13A2 WT, screen” value is given as “did not increase ATP13A2 activity”.
Regarding `[Na+].[Na+].[Na+].[O]=[V]([O-])([O-])[O-]` [orthovanadate, sodium orthovanadate], the “SPM-induced ATPase activity, inhibition” value at Purified ATP13A2 (1 mM SPM, 0.25 mM orthovanadate, 125 µM PA/PI(3,5)P2) is on record as “blocked”.
As for `N=C(N)NCCCCN.O=S(=O)(O)O` [agmatine, agmatine sulfate salt], at Microsomal ATP13A2, the “ATPase activity of ATP13A2, dose-response” value was “did not induce ATP13A2 activity”.
